{"source": "patent US10426755B2", "about": "“Methods for inhibiting cancer cells” (Chang Gung Memorial Hospital, Chiayi, priority 2015, dated 2019)", "format_in_all_cases": "cell-based", "key": {"[1]": {"system": "prostate cancer cell lines (LNCaP, hormone therapy-resistant PC3, DU145 and 22RV1)", "experiment": "XTT proliferation assay, prostate cancer cells", "conditions": "1, 5 and 10 μM DT, 1-2 days, XTT absorbance 492 nm; FIG. 1", "description": "An in vitro evaluation of the effect of dihydroisotanshinone I (DT) on the following prostate cancer cell lines was performed: LNCaP (with lymph node metastasis), hormone therapy resistant PC3 (with bone metastasis), 22RV1, DU145 (with brain metastasis), were obtained from Bioresource Collection and Research Center, Taiwan and DT was purchased from ChemFaces Co., Ltd., China.\n(§1) The prostate cancer cells were plated at a density of 10^3 or 3×10^3 per well, in a 96-well plate, in a medium containing 10% Fetal bovine serum (FBS) (Gibco®, commercially available from Life Technologies, USA). Once the prostate cancer cells were attached to the culture dish, the 10% FBS medium was replaced with a second 10% FBS medium and each of the prostate cancer cell line was treated with 1, 5, and 10 μM of DT respectively for 1-2 days. The absorbance was measured using XTT assay kit (commercially available from Roche, Switzerland) at 492 nm using an ELISA reader (Bio-Rad Laboratories, USA)."}, "[2]": {"system": "skp2, MMP2, MMP9 in DU145, PC3 and 22RV1 prostate cancer cells", "experiment": "skp2 and downstream gene mRNA expression, prostate cancer cells", "conditions": "various concentrations of DT vs DMSO; PC3, DU145, 22RV1; FIG. 9 (h)-(l)", "description": "(§2) It has been reported that skp2 plays an important role in the metastasis of cancer cells. An in vitro evaluation of the effect of DT on prostate cancer cell metastasis was performed, by measuring the mRNA expression of skp2 in the following prostate cancer cell lines: meatstatic DU145 cells (Panels i-j of FIG. 9), hormone therapy resistant and metastatic PC3 cells (Panel h of FIG. 9), and 22RV1 cells (Panels k-l of FIG. 9), A549 lung cancer cells (Panels (c)-(e) of FIG. 10), chemotherapy-resistant/metastatic H460 lung cancer cells (Panels (d) and (f) of FIG. 10), HCT116 colon cancer cells (Panels (g) and (i) of FIG. 10) and MCF7-tamoxifen resistant breast cancer cells (Panels (h) and (j) of FIG. 10) […].\n(§3) The cancer cells were treated with DMSO and various concentrations of DT."}, "[3]": {"system": "skp2 and downstream genes in A549 and H460 lung cancer cells", "experiment": "skp2 and downstream gene mRNA expression, lung cancer cells", "conditions": "various concentrations of DT vs DMSO, FIG. 10 (c)-(f)", "description": "as §2, §3"}, "[4]": {"system": "breast cancer cell lines (MDA-MB-231, MCF-7 and tamoxifen-resistant MCF-7)", "experiment": "XTT proliferation assay, breast cancer cells", "conditions": "0, 5, 10 and 20 μM DT, 1-3 days, FIG. 3", "description": "as §1\n(§4) An in vitro evaluation of the effect of DT on the breast cancer cells was performed. The breast cancer cell lines, MDA-MB-231, MCF-7 and tamoxifen-resistant MCF-7 breast cancer cells were obtained from Bioresource Collection and Research Center, Taiwan. The breast cancer cells were cultured in Eagle's Minimum Essential Medium containing 10% charcoal-stripped fetal bovine serum and plated according to the steps in Example 1 and each of the breast cancer cell line was treated with 0 (control), 5, 10 and 20 μM of DT, respectively for 1-3 days. The absorbance was measured using XTT assay kit at 492 nm using an ELISA reader."}, "[5]": {"system": "chemotherapy-resistant colorectal cancer cells (HCT116)", "experiment": "XTT proliferation assay, colorectal cancer cells", "conditions": "1, 5 and 10 μM DT, 1-3 days, FIG. 5", "description": "as §1\nAn in vitro evaluation of the effect of DT on the chemotherapy-resistant colorectal cancer cells was performed. The chemotherapy-resistant colorectal cancer cells (HCT116) were obtained from Dr. K D Lee at Chang Gung Memorial Hospital, Chiayi, Taiwan. The colorectal cancer cells were cultured and plated according to the steps in Example 1 and treated with 0 (control), 1, 5 and 10 μM of DT, respectively for 1-3 days. The absorbance was measured using XTT assay kit at 492 nm using an ELISA reader."}, "[6]": {"system": "tamoxifen-resistant MCF-7 breast cancer cells", "experiment": "XTT proliferation assay, tamoxifen-resistant MCF-7", "conditions": "1-3 days, Panel (c) of FIG. 3", "description": "as §1, §4"}, "[7]": {"system": "breast cancer cells (MCF-7, tamoxifen-resistant MCF7 and MDA MB-231)", "experiment": "Annexin V/PI flow cytometry apoptosis/necrosis, breast cancer cells", "conditions": "10 or 20 μM DT, 24-48 hours, vs PBS and control; time dependent; FIG. 8", "description": "The effect of DT on metastatic prostate cancer cells (hormone therapy-resistant PC3, DU145 and LNCaP); lung cancer cells (A549 and chemotherapy-resistant/metastatic H460); and breast cancer cells (MCF-7, tamoxifen-resistant MCF7 and MDA MB-231) was assessed.\n1×10^6 Cancer cells were seeded in a 100-mm plate and cultured overnight. The cancer cells were treated with phosphate buffered saline (PBS), a Dimethyl sulfoxide (DMSO) vehicle (CT), 10 or 20 μM of DT for 24-48 hours, then collected and washed with cold PBS. The supernatant was removed by centrifugation and resuspended in FITC Annexin V binding buffer and Propidium iodide (PI) (Annexin V-FITC Apoptosis Detection Kit, commercially available from Strong Biotech Corporation, Taiwan). The suspended cancer cells were stained at room temperature, in the dark for 15 min and analyzed by the BD FACSCanto™ flow cytometry (Becton Dickinson, USA). The amount of early apoptosis, late apoptosis, and necrosis was measured as the percentage of annexin-V positive/PI negative (Q4 in the FACS images), annexin-V positive/PI positive (Q2 in the FACS images), and annexin-V negative/PI positive cells (Q1 in the FACS images), respectively. Normal cells are in […] of the FACS images."}, "[8]": {"system": "CCL2 in THP1/DU145 co-culture", "experiment": "CCL2 ELISA, THP1/DU145 co-culture", "conditions": "DT-treated monocyte/DU145 co-culture medium; 5 or 10 μM DT, 24 hours; FIG. 15 (a)", "description": "As illustrated in Example 10, the production of CCL2 was inhibited by DT in both prostate cancer cells and macrophage, the effect of DT on monocyte/cancer cell co-culture and macrophage/cancer cell co-culture was examined using the invasion assay described in Example 9. • (a) THP1 monocytes, Raw264.7 macrophage, monocyte/prostate cancer co-culture and macrophage/prostate cancer co-culture were treated with a vehicle (DMSO), 5 or 10 μM DT for 24 hours, the cultured medium was collected and placed into the lower chamber of a transwell plate. • (b) Prostate cancer cells (PC3, DU145 and 22RV1) were placed in the cell invasion assay). The level of CCL2 in the invasion assay was measured by ELIZA method."}}, "note": "“Also recorded” adds a separate entry of the source.", "data": [{"smiles": "Cc1cccc2c3c(ccc12)C(=O)C1=C(OCC1C)C3=O", "note": "(centres unmarked) [DT, dihydroisotanshinone I]", "values": [{"measurement": "inhibition of prostate cancer cell proliferation", "setting": "[1]", "value": "inhibits prostate cancer cell proliferation in a dose dependent fashion"}, {"measurement": "mRNA expression of skp2 and its downstream genes, prostate cancer", "setting": "[2]", "value": "effectively inhibit mRNA expression of skp2 and its downstream genes; also recorded: reduced skps and its downstream genes, MMP2 and MMP9"}, {"measurement": "mRNA expression of skp2 and its downstream genes, lung cancer", "setting": "[3]", "value": "effectively inhibit mRNA expression of skp2 and its downstream genes; also recorded: reduces skps and its downstream genes, MMP2, MMP9 and E-cadherin"}, {"measurement": "inhibition of breast cancer cells (proliferation)", "setting": "[4]", "value": "effective in inhibiting breast cancer cells, even for the tamoxifen-resistant MCF-7 breast cancer cells, in a dose dependent and time dependent fashion"}, {"measurement": "inhibition of chemotherapy-resistant colorectal cancer cells", "setting": "[5]", "value": "effective in inhibiting chemotherapy-resistant colorectal cancer cells in a dose dependent manner"}, {"measurement": "dose of DT required for inhibiting tamoxifen-resistant MCF-7 cells", "setting": "[6]", "value": "> 1", "unit": "µM"}, {"measurement": "early apoptosis, late apoptosis and necrosis, breast cancer cells", "setting": "[7]", "value": "more early apoptosis, late apoptosis and necrosis"}, {"measurement": "concentration of CCL2", "setting": "[8]", "value": "significantly reduced"}]}]}
